Assay results reported in patent US8889591B2, “Herbicidal compositions comprising 4-amino-3-chloro-5-fluoro-6-(4-chloro-2-fluoro-3-methoxyphenyl)pyridine-2-carboxylic acid or a derivative thereof and bromobutide, daimuron, oxaziclomefone or pyributicarb” (Dow Agrosciences LLC, priority 2012, dated 2014).

Columns and labels:
ECHCO = assay: Postemergence foliar-applied greenhouse weed control, direct-seeded rice system; format: in vivo, Echinochloa colona (L.) Link
Description: (§1) Seeds or nutlets of the desired test plant species were planted in a soil matrix prepared by mixing a loam or sandy loam soil (e.g., 28.6 percent silt, 18.8 percent clay, and 52.6 percent sand, with a pH of about 5.8 and an organic matter content of about 1.8 percent) and calcareous grit in an 80 to 20 ratio. The soil matrix was contained in plastic pots with a volume of 1 quart and a surface area of 83.6 square centimeters (cm^2). When required to ensure good germination and healthy plants, a fungicide treatment and/or other chemical or physical treatment was applied. The plants were grown for 8-22 days in a greenhouse with an approximate 14 h photoperiod which was maintained at about 29° C. during the day and 26° C. during the night. Nutrients (Peters Excel® 15-5-15 5-Ca 2-Mg and iron chelate) were applied in the irrigation solution as needed and water was added on a regular basis. Supplemental lighting was provided with overhead metal halide 1000-Watt lamps as necessary. The plants were employed for testing when they reached the first through fourth true leaf stage.
(§2) Treatments consisted of the acid or esters of 4-amino-3-chloro-5-fluoro-6-(4-chloro-2-fluoro-3-methoxy-phenyl)pyridine-2-carboxylic acid (Compound A), each formulated as an SC (suspension concentrate), and various herbicidal components alone and in combination. Forms of compound A were applied on an acid equivalent basis.
(§3) Other herbicidal components were applied on an active ingredient basis and included diamuron formulated as an EC (emulsifiable concentrate) and oxaziclomefone (technical grade material).
(§4) Treatment requirements were calculated based upon the rates being tested, the concentration of active ingredient or acid equivalent in the formulation, and a 12 mL application volume at a rate of 187 L/ha.
(§5) For treatments comprised of formulated compounds, measured amounts of compounds were placed individually in 25 mL glass vials and diluted in a volume of 1.25% (v/v) Agri-Dex® crop oil concentrated to obtain 12× stock solutions. […] Application solutions were prepared by adding an appropriate amount of each stock solution (e.g., 1 mL) and diluted to the appropriate final concentrations with the addition of 10 mL of an aqueous mixture of 1.25% (v/v) crop oil concentrate so that the final spray solutions contained 1.25+/−0.05% (v/v) crop oil concentrate.
(§6) For treatments comprised of technical compounds, weighed amounts can be placed individually in 25 mL glass vials and dissolved in a volume of 97:3 v/v acetone/DMSO to obtain 12× stock solutions. […] Application solutions can be prepared by adding an appropriate amount of each stock solution (e.g., 1 mL) and diluted to the appropriate final concentrations with the addition of 10 mL of an aqueous mixture of 1.5% (v/v) crop oil concentrate so that the final spray solutions contain 1.25% (v/v) crop oil concentrate. When technical materials are used, the concentrated stock solutions can be added to the spray solutions so that the final acetone and DMSO concentrations of the application solutions are 16.2% and 0.5%, respectively.
(§7) For treatments comprised of formulated and technical compounds, weighed amounts of the technical materials were placed individually in 25 mL glass vials and dissolved in a volume of 97:3 v/v acetone/DMSO to obtain 12× stock solutions, and measured amounts of the formulated compounds were placed individually in 25 mL glass vials and diluted in a volume of 1.5% (v/v) crop oil concentrate or water to obtain 12× stock solutions. […] Application solutions were prepared by adding an appropriate amount of each stock solution (e.g., 1 mL) and diluted to the appropriate final concentrations with the addition of an appropriate amount of an aqueous mixture of 1.5% (v/v) crop oil concentrate so that the final spray solutions contained 1.25% (v/v) crop oil concentrate. […]

ECHOR = assay: In-water applied greenhouse weed control, transplanted paddy rice system; format: in vivo, Echinochloa oryzoides (Ard.) Fritsch; conditions: in-water application
Protocol: (§8) Weed seeds or nutlets of the desired test plant species were planted in puddled soil (mud) prepared by mixing a shredded, non-sterilized mineral soil (50.5 percent silt, 25.5 percent clay, and 24 percent sand, with a pH of about 7.6 and an organic matter content of about 2.9 percent) and water at a 1:1 volumetric ratio. The prepared mud was dispensed in 365 mL aliquots into 16-ounce (oz.) non-perforated plastic pots with a surface area of 86.59 square centimeters (cm^2) leaving a headspace of 3 centimeters (cm) in each pot. Mud was allowed to dry overnight prior to planting or transplanting. Rice seeds were planted in Sun Gro MetroMix® 306 planting mixture, which typically has a pH of 6.0 to 6.8 and an organic matter content of about 30 percent, in plastic plug trays. Seedlings at the second or third leaf stage of growth were transplanted into 840 mL of mud contained in 32-oz. non-perforated plastic pots with a surface area of 86.59 cm^2 4 days prior to herbicide application. The paddy was created by filling the headspace of the pots with 2.5 to 3 cm of water. When required to ensure good germination and healthy plants, a fungicide treatment and/or other chemical or physical treatment was applied. The plants were grown for 4-22 days in a greenhouse with an approximate 14 h photoperiod which was maintained at about 29° C. during the day and 26° C. during the night. Nutrients were added as Osmocote® (19:6:12, N:P:K+ minor nutrients) at 2 g per 16-oz. pot and 4 g per 32-oz. pot. Water was added on a regular basis to maintain the paddy flood, and supplemental lighting was provided with overhead metal halide 1000-Watt lamps as necessary. The plants were employed for testing when they reached the first through fourth true leaf stage.
(§9) Treatments consisted of the acid or esters of 4-amino-3-chloro-5-fluoro-6-(4-chloro-2-fluoro-3-methoxy-phenyl)pyridine-2-carboxylic acid (compound A) each formulated as an SC and various herbicidal components alone and in combination. Forms of compound A were applied on an acid equivalent basis.
(§10) Other herbicidal components were applied on an active ingredient basis and included daimuron formulated as an EC, bromobutide (technical grade material), and oxaziclomefone (technical grade material).
(§11) Treatment requirements for each compound or herbicidal component were calculated based upon the rates being tested, the concentration of active ingredient or acid equivalent in the formulation, an application volume of 2 mL per component per pot, and an application area of 86.59 cm^2 per pot.
(§12) For formulated compounds, a measured amount was placed in an individual 100 or 200 mL glass vial and was dissolved in a volume of 1.25% (v/v) Agri-Dex® crop oil concentrate to obtain application solutions.
(§13) For technical grade compounds, a weighed amount was placed in an individual 100 to 200 mL glass vial and was dissolved in a volume of acetone to obtain concentrated stock solutions. […] The concentrated stock solutions obtained were diluted with an equivalent volume of an aqueous mixture containing 2.5% (v/v) crop oil concentrate so that the final application solutions contained 1.25% (v/v) crop oil concentrate.
(§14) Applications were made by injecting, with a pipetter, appropriate amounts of the application solutions, individually and sequentially, into the aqueous layer of the paddy. Control plants were treated in the same manner with the solvent blank. Applications were made so that all treated plant material received the same concentrations of acetone and crop oil concentrate.
(§15) The treated plants and control plants were placed in a greenhouse as described above and water was added as needed to maintain a paddy flood. After approximately 3 weeks the condition of the test plants as compared with that of the untreated plants was determined visually and scored on a scale of 0 to 100 percent where 0 corresponds to no injury or growth inhibition and 100 corresponds to complete kill. […]

BRAPP = assay: Postemergence foliar-applied greenhouse weed control, direct-seeded rice system; format: in vivo
Description: as §1, §2, §3, §4, §5, §6, §7

FIMMI = assay: In-water applied greenhouse weed control, transplanted paddy rice system; format: in vivo, Fimbristylis miliacea (L.) Vahl; conditions: in-water application
Protocol: as §8, §9, §10, §11, §12, §13, §14, §15

LEFCH = assay: Postemergence foliar-applied greenhouse weed control, direct-seeded rice system; format: in vivo, Leptochloa chinensis (L.) Nees
Description: as §1, §2, §3, §4, §5, §6, §7

ECHCG = assay: as above; format: in vivo, Echinochloa crusgalli (L.) Beauv.
Description: as §1, §2, §3, §4, §5, §6, §7

IPOHE = assay: as above; format: in vivo, Ipomoea hederacea Jacq.
Description: as §1, §2, §3, §4, §5, §6, §7

[1] = Daimuron 100 gai/ha alone (Table 2)
[2] = Daimuron 200 gai/ha alone (Table 2)
[3] = Daimuron 400 gai/ha alone (Table 2)

## Cc1ccc(NC(=O)NC(C)(C)c2ccccc2)cc1 [Daimuron, N-(4-methylphenyl)-N′-(1-methyl-1-phenylethyl)urea]
ECHCO; Daimuron 100 gai/ha alone
  Visual Weed Control (%) - 20 DAA ECHCO Obs: 0%
ECHCO; [1]
  Visual Weed Control (%) - 20 DAA ECHCO Obs: 0%
ECHCO; Daimuron 200 gai/ha alone
  Visual Weed Control (%) - 20 DAA ECHCO Obs: 10%
ECHCO; [2]
  Visual Weed Control (%) - 20 DAA ECHCO Obs: 10%
ECHCO; Daimuron 400 gai/ha alone
  Visual Weed Control (%) - 20 DAA ECHCO Obs: 10%
ECHCO; [3]
  Visual Weed Control (%) - 20 DAA ECHCO Obs: 10%
ECHOR; Daimuron 200 gai/ha alone
  Visual Weed Control (%) - 21 DAA ECHOR Obs: 0%
ECHOR; Daimuron 400 gai/ha alone
  Visual Weed Control (%) - 21 DAA ECHOR Obs: 15%
ECHOR; Diamuron 400 gai/ha alone
  Visual Weed Control (%) - 20 DAA ECHOR Obs: 60%
BRAPP; Daimuron 100 gai/ha alone
  Visual Weed Control (%) - 20 DAA BRAPP Obs: 0%
BRAPP; [1]
  Visual Weed Control (%) - 20 DAA BRAPP Obs: 0%
BRAPP; Daimuron 200 gai/ha alone
  Visual Weed Control (%) - 20 DAA BRAPP Obs: 0%
BRAPP; [2]
  Visual Weed Control (%) - 20 DAA BRAPP Obs: 0%
BRAPP; Daimuron 400 gai/ha alone
  Visual Weed Control (%) - 20 DAA BRAPP Obs: 0%
BRAPP; [3]
  Visual Weed Control (%) - 20 DAA BRAPP Obs: 0%
FIMMI; Daimuron 200 gai/ha alone
  Visual Weed Control (%) - 21 DAA FIMMI Obs: 10%
FIMMI; Daimuron 400 gai/ha alone
  Visual Weed Control (%) - 21 DAA FIMMI Obs: 80%
LEFCH; Daimuron 100 gai/ha alone
  Visual Weed Control (%) - 20 DAA LEFCH Obs: 0%
LEFCH; Daimuron 200 gai/ha alone
  Visual Weed Control (%) - 20 DAA LEFCH Obs: 0%
LEFCH; [2]
  Visual Weed Control (%) - 20 DAA LEFCH Obs: 0%
LEFCH; Daimuron 400 gai/ha alone
  Visual Weed Control (%) - 20 DAA LEFCH Obs: 0%
LEFCH; [3]
  Visual Weed Control (%) - 20 DAA LEFCH Obs: 0%
ECHCG; Daimuron 100 gai/ha alone
  Visual Weed Control (%) - 20 DAA ECHCG Obs: 0%
ECHCG; [1]
  Visual Weed Control (%) - 20 DAA ECHCG Obs: 0%
ECHCG; Daimuron 200 gai/ha alone
  Visual Weed Control (%) - 20 DAA ECHCG Obs: 0%
ECHCG; [2]
  Visual Weed Control (%) - 20 DAA ECHCG Obs: 0%
ECHCG; Daimuron 400 gai/ha alone
  Visual Weed Control (%) - 20 DAA ECHCG Obs: 0%
ECHCG; [3]
  Visual Weed Control (%) - 20 DAA ECHCG Obs: 0%
IPOHE; Daimuron 100 gai/ha alone
  Visual Weed Control (%) - 20 DAA IPOHE Obs: 0%
IPOHE; [1]
  Visual Weed Control (%) - 20 DAA IPOHE Obs: 0%
IPOHE; Daimuron 200 gai/ha alone
  Visual Weed Control (%) - 20 DAA IPOHE Obs: 10%
